Assay results as given in publication PMC5428509, “Irreversible inhibition of BTK kinase by a novel highly selective inhibitor CHMFL-BTK-11 suppresses inflammatory response in rheumatoid arthritis model” (Scientific Reports, 2017).

What was measured:
Assay in all cases: biochemical
Parameters in all cases: KinomeScan competition binding panel (DiscoveRx), percent of control at 1 uM
Conditions in all cases: read-out: Percent Control
MYLK4 = MYLK4 (Homo sapiens, UniProt Q86YV6)
How it was run: (§1)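 Selectivity profiled across 456 kinases/mutants by KinomeScan binding technology.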

IKK-beta = target: T1, IKK-beta (Homo sapiens, UniProt O14920)
T1 construct: gene IKBKB
How it was run: as §1

PKAC-beta = target: T2, PKAC-beta (Homo sapiens, UniProt P22694)
T2 construct: gene PRKACB
How it was run: as §1

ERBB4 = ERBB4 (Homo sapiens, UniProt Q15303)
How it was run: as §1

ERK8 = target: T3, ERK8 (Homo sapiens, UniProt Q8TD08)
T3 construct: gene MAPK15
How it was run: as §1

MST3 = target: T4, MST3 (Homo sapiens, UniProt Q9Y6E0)
T4 construct: gene STK24
How it was run: as §1

CAMK2A = CAMK2A (Homo sapiens, UniProt Q9UQM7)
How it was run: as §1

SIK = target: T5, SIK (Homo sapiens, UniProt P57059)
T5 construct: gene SIK1
How it was run: as §1

CDK9 = CDK9 (Homo sapiens, UniProt P50750)
How it was run: as §1

[1] = target: T6, RSK3(Kin.Dom.1-N-terminal) (Homo sapiens, UniProt Q15349)
T6 construct: gene RPS6KA2; Kin.Dom.1-N-terminal
How it was run: as §1

MAP4K2 = MAP4K2 (Homo sapiens, UniProt Q12851)
How it was run: as §1

STK35 = STK35 (Homo sapiens, UniProt Q8TDR2)
How it was run: as §1

AKT2 = AKT2 (Homo sapiens, UniProt P31751)
How it was run: as §1

ERK1 = target: T7, ERK1 (Homo sapiens, UniProt P27361)
T7 construct: gene MAPK3
How it was run: as §1

[2] = target: EGFR(L747-S752del, P753S) (Homo sapiens, UniProt P00533, DEL747-752/P753S)
EGFR(L747-S752del, P753S), sequence (P00533 with tags, fused parts or gaps DEL747-752/P753S): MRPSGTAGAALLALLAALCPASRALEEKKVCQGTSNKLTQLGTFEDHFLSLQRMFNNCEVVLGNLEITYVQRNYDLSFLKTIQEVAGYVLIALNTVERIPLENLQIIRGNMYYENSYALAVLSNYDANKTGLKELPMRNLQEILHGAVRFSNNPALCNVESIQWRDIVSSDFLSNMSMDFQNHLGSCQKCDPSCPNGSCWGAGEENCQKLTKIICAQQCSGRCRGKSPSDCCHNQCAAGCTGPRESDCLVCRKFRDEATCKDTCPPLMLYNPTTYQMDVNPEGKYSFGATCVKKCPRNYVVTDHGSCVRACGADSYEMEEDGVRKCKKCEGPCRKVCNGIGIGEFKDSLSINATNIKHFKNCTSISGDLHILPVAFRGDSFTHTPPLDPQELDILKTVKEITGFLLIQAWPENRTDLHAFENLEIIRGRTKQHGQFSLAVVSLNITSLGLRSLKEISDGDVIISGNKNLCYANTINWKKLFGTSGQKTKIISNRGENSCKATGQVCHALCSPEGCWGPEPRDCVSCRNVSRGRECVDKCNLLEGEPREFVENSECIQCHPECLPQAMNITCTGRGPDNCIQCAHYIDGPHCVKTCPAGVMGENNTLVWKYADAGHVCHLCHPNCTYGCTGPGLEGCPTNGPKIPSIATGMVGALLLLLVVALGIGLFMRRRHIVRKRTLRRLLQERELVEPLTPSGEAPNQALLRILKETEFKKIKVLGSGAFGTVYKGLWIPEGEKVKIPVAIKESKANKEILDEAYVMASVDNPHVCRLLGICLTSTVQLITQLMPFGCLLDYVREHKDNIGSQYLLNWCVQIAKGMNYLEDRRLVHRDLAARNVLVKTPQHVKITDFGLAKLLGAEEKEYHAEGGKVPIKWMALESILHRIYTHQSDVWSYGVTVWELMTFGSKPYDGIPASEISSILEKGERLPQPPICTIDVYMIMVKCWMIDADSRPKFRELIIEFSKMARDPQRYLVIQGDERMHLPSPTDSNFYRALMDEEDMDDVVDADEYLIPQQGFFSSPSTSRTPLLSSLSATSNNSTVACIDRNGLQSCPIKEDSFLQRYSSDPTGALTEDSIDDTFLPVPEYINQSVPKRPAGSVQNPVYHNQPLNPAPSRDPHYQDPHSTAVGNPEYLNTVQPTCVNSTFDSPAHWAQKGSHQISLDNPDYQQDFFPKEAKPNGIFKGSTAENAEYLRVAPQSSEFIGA
How it was run: as §1

ACVR1B = ACVR1B (Homo sapiens, UniProt P36896)
ACVR1B, sequence (P36896 whole entry): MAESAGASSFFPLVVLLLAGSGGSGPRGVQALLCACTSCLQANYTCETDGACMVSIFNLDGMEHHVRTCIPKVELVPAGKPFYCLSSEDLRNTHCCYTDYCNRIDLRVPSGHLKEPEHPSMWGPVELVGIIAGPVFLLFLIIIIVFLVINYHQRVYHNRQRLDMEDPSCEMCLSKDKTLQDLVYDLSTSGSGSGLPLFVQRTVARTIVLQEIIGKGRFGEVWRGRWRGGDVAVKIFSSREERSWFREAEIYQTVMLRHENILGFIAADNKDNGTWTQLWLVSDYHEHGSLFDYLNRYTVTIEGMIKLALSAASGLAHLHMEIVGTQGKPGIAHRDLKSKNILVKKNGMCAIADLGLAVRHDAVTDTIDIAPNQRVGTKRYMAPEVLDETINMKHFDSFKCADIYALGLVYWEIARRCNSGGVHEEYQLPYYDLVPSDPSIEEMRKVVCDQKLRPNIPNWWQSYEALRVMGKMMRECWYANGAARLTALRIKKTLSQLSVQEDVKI
How it was run: as §1

PCTK3 = target: T8, PCTK3 (Homo sapiens, UniProt Q07002)
T8 construct: gene CDK18
How it was run: as §1

EPHA5 = EPHA5 (Homo sapiens, UniProt P54756)
How it was run: as §1

MTOR = MTOR (Homo sapiens, UniProt P42345)
How it was run: as §1

EPHA1 = EPHA1 (Homo sapiens, UniProt P21709)
How it was run: as §1

MYLK = MYLK (Homo sapiens, UniProt Q15746)
MYLK, sequence (Q15746 whole entry): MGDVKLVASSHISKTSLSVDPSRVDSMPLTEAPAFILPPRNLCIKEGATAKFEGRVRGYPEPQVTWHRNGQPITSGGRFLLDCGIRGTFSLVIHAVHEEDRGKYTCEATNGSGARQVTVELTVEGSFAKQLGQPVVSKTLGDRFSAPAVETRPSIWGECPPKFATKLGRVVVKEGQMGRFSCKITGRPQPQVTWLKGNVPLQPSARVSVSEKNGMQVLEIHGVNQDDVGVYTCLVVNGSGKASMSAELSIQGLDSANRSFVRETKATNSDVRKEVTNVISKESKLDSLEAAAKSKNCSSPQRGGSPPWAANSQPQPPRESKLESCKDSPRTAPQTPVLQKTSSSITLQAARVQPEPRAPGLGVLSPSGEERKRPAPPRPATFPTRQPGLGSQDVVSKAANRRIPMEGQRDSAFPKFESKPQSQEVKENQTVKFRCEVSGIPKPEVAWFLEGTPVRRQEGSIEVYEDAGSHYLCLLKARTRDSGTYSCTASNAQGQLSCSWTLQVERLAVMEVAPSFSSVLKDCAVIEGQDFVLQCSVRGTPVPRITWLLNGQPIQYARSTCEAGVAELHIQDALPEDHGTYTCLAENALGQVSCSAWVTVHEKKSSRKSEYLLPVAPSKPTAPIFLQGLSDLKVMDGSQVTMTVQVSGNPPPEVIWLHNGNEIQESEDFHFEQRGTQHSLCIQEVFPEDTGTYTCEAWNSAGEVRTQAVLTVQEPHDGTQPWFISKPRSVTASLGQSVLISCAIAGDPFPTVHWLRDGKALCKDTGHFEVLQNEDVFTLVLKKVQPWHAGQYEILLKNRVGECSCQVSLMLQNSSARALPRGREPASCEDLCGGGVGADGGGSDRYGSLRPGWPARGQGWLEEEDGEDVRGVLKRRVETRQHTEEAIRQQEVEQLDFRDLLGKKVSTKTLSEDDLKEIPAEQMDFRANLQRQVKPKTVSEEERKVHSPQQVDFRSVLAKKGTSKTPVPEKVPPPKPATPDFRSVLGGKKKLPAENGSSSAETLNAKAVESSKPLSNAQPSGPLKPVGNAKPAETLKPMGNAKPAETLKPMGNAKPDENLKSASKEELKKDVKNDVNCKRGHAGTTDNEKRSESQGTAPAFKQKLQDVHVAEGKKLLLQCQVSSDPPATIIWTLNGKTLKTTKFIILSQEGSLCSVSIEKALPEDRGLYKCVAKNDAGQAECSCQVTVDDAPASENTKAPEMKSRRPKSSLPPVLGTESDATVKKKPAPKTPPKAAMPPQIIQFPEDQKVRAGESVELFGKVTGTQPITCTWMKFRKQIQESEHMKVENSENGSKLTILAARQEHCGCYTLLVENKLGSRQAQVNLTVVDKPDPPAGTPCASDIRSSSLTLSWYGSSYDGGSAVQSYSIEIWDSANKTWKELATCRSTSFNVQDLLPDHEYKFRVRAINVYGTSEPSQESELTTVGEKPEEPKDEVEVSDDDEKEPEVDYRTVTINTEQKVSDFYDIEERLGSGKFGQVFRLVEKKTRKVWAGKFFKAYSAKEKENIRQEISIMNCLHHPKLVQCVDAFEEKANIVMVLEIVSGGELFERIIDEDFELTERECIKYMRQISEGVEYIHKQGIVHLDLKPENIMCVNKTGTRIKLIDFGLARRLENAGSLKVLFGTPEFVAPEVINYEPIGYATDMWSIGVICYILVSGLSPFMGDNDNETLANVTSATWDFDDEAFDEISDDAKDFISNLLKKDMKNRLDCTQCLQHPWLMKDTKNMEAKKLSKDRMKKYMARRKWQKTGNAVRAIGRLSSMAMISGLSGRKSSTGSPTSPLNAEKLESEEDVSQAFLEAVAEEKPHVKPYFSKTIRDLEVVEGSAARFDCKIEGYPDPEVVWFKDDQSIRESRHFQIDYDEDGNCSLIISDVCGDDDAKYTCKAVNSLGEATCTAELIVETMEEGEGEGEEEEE
How it was run: as §1

EPHA3 = EPHA3 (Homo sapiens, UniProt P29320)
EPHA3, sequence (P29320 whole entry): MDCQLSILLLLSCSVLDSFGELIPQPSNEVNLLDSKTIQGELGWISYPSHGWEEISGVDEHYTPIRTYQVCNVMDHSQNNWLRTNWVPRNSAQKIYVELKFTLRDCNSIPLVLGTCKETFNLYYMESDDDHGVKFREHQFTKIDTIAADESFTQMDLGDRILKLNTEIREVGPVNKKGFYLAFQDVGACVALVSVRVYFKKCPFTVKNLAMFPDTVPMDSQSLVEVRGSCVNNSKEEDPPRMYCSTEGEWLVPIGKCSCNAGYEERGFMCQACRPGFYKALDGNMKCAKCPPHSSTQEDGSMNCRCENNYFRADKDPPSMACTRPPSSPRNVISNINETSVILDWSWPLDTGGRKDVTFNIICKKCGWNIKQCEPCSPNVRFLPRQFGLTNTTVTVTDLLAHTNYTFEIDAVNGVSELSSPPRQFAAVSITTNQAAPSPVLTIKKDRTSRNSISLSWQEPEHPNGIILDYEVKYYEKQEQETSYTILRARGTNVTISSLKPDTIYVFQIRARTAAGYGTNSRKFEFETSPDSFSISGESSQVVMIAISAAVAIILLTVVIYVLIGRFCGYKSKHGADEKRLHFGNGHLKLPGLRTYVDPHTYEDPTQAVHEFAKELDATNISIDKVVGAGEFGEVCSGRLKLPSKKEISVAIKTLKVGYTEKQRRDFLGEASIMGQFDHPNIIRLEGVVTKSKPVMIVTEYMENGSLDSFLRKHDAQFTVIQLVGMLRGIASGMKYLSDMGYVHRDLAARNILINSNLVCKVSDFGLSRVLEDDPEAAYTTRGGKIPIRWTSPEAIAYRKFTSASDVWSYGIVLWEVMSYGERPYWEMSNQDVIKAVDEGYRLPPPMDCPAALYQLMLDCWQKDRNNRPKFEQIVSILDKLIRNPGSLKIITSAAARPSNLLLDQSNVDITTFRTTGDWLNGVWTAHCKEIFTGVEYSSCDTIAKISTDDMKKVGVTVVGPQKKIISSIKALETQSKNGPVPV
How it was run: as §1

LRRK2 = LRRK2 (Homo sapiens, UniProt Q5S007)
How it was run: as §1

[3] = target: T9, JAK2(JH1domain-catalytic) (Homo sapiens, UniProt O60674)
T9 construct: JH1domain-catalytic
How it was run: as §1

GRK1 = GRK1 (Homo sapiens, UniProt Q15835)
How it was run: as §1

MYLK4, sequence (Q86YV6 whole entry): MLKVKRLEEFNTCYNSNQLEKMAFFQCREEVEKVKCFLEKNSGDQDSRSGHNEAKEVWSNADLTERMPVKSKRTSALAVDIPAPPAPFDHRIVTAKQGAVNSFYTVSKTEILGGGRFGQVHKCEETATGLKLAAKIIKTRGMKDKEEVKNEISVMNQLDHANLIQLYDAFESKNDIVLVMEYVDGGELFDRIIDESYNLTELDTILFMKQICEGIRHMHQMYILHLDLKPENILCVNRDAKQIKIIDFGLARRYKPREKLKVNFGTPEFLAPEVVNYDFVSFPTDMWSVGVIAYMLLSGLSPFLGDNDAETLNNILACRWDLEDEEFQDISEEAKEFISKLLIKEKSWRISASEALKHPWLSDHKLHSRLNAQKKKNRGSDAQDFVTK

C=CC(=O)Nc1cc(-n2c(=O)ccc3cnc4ccc(-n5cccn5)cc4c32)ccc1C [CHMFL-BTK-11]
remaining binding at 1 µM (MYLK4): 100% | remaining binding at 1 µM (IKK-beta): 86% | remaining binding at 1 µM (PKAC-beta): 100% | remaining binding at 1 µM (ERBB4): 91% | remaining binding at 1 µM (ERK8): 99% | remaining binding at 1 µM (MST3): 100% | remaining binding at 1 µM (CAMK2A): 100% | remaining binding at 1 µM (SIK): 100% | remaining binding at 1 µM (CDK9): 96% | remaining binding at 1 µM [1]: 100% | remaining binding at 1 µM (MAP4K2): 98% | remaining binding at 1 µM (STK35): 100% | remaining binding at 1 µM (AKT2): 100% | remaining binding at 1 µM (ERK1): 100% | remaining binding at 1 µM [2]: 86% | remaining binding at 1 µM (ACVR1B): 100% | remaining binding at 1 µM (PCTK3): 90% | remaining binding at 1 µM (EPHA5): 100% | remaining binding at 1 µM (MTOR): 62% | remaining binding at 1 µM (EPHA1): 100% | remaining binding at 1 µM (MYLK): 82% | remaining binding at 1 µM (EPHA3): 97% | remaining binding at 1 µM (LRRK2): 96% | remaining binding at 1 µM [3]: 78% | remaining binding at 1 µM (GRK1): 71%
